This note sets out measurements from publication PMC9718554, “Discovery of a fragment hit compound targeting D-Ala:D-Ala ligase of bacterial peptidoglycan biosynthesis” (Journal of Enzyme Inhibition and Medicinal Chemistry, 2022).

For the assay, the target named is T1, E. coli DdlB enzyme (D-alanine:D-alanine ligase) (Escherichia coli, UniProt P07862).
T1 construct: made in house; host or cells: E. coli
Put plainly: biochemical. Conditions: read-out: DdlB RA; for remaining activity at 2200 µM: tested concentration 2.2 mM; for remaining activity at 2300 µM: tested concentration 2.3 mM; for remaining activity at 2000 µM: tested concentration 2.0 mM; for remaining activity at 1800 µM: tested concentration 1.8 mM; for remaining activity at 2100 µM: tested concentration 2.1 mM; for remaining activity at 1700 µM: tested concentration 1.7 mM; for remaining activity at 2400 µM: tested concentration 2.4 mM; for remaining activity at 2900 µM: tested concentration 2.9 mM; for remaining activity at 3100 µM: tested concentration 3.1 mM; for remaining activity at 3400 µM: tested concentration 3.4 mM; for remaining activity at 3500 µM: tested concentration 3.5 mM; for remaining activity at 1900 µM: tested concentration 1.9 mM; for remaining activity at 2500 µM: tested concentration 2.5 mM. On the procedure:
The fragment library was assayed in a DdlB inhibition assay, where fragments were tested for their ability to inhibit the D-Ala-adding activity of DdlB ligase. The orthophosphate formed during the enzymatic reaction was measured spectrophotometrically using malachite green reagent.
A recombinant E. coli DdlB enzyme (D-alanine:D-alanine ligase) was expressed in E. coli[11]. […] The final DMSO concentration was 5%. […] All experiments were performed in duplicates. […] IC50 values were determined by measuring the residual activities in quadruplicate at seven different compound concentrations and calculated using in GraphPad Prism (GraphPad Software, San Diego, CA, USA).

The mark [1] stands for this setting: residual activity of DdlB, fragment library screening.

SMILES strings stand for the structures. Like-named read-outs stand apart in the source and are kept apart here.

With `CC1(C)Cc2[nH]c(=O)c(C(=O)O)cc2CO1` [Compound 4965-0162], the remaining activity at 2200 µM (residual activity) was determined as 93%.

As for `c1ccc2c(c1)N(CN1CCCC1)CC21OCCO1` [Compound 5482-0050], the remaining activity at 2300 µM came to 94%. Regarding `CC1(C)Cc2nc(N)c(C(=O)O)cc2CO1` [Compound 5545-0125], the remaining activity at 2300 µM (residual activity) came to 95%. On to `CN1CCN(C2CC(=O)N(c3ccccc3)C2=O)CC1` (stereo not shown) [Compound 5593-0294], for which, under “residual activity”, the remaining activity at 2000 µM worked out at 99%. On to `Cc1ccc([C@@H](CC(=O)O)c2ccco2)cc1` [Compound 5664-0388], for which the remaining activity at 2200 µM worked out at 100%. Turning to `CC(=O)CC1(O)C(=O)Nc2ccc(Br)cc21` (stereo not shown) [Compound 5897-0084], the remaining activity at 1800 µM (residual activity) came to 96%.

Take `O=S(=O)(O)CCN1CCN(CCO)CC1` [Compound 6105-1549]: the remaining activity at 2100 µM is 99%.

In the case of `CCOc1ccc([C@@H](CC(=O)O)NC(C)=O)cc1` [Compound 6705-0233], the remaining activity at 2000 µM (fragment library screening) turned out to be 87%. Regarding `COc1ccc(OC)c(-c2oc3ccccc3c(=O)c2O)c1` [Compound 6877-0609], the remaining activity at 1700 µM is 102%. `Cc1ccc(CC2CC(=O)N(c3ccncc3)C2=O)cc1` (stereo not shown) [Compound 6903-0015]: the remaining activity at 2000 µM (residual activity) stood at 84%. As for `O=C(Nc1ccccn1)NC1CCS(=O)(=O)C1` (stereo not shown) [Compound 7098-0576], the remaining activity at 2400 µM was 87%.

For the compound `Nc1ncnc2[nH]c(N3CCOCC3)nc12` [Compound 8001-0336], for the setting “residual activity”, the remaining activity at 2300 µM was 98%. As to `Nc1ccc(S(=O)(=O)O)cc1` [Compound 8001-1265], the remaining activity at 2900 µM came to 95%. As for `O=C(Nc1nc[nH]n1)c1ccc(Cl)cc1` [Compound 8003-7117], the remaining activity at 2200 µM (residual activity) came to 103%. As to `O=C1CSC2N1CCNC21CCCCC1` (stereo not shown) [Compound 8003-7360], the remaining activity at 2200 µM worked out at 90%. For `CCC(CC)NC1=NS(=O)(=O)c2ccccc21` [Compound 8003-7481], the remaining activity at 2400 µM was determined as 100%. Regarding `NCCNC(=O)c1nonc1N` [Compound 8006-0101], where the note is “residual activity of DdlB, fragment library screening, tested concentration 3.2 mM”, the remaining activity at 3200 µM is 93%. Consider `CC(=O)Nc1ccc2c(C)cc(C)nc2n1` [Compound 8006-1575], for which the remaining activity at 2300 µM was 97%. Take `Cc1ccc(C(=O)O)c(NC(=O)c2ccncc2)c1` [Compound 8006-9224]: the remaining activity at 2000 µM (residual activity) was 97%.

Turning to `CCCOc1ccc(C(=O)NCC(=O)O)cc1` [Compound 8007-0359], the remaining activity at 2100 µM came to 86%. Regarding `Cc1ccc(C2(O)CC(C)N(C)CC2C)cc1` (stereo not shown) [Compound 8007-1141], under “tested concentration 2.6 mM”, the remaining activity at 2600 µM worked out at 94%.

For `O=C(O)Cn1nnc(-c2ccccc2Cl)n1` [Compound 8007-4998], the remaining activity at 2100 µM worked out at 93%. `COC(=O)N1C2C=CC(C2)C1(C(F)(F)F)C(F)(F)F` (stereo not shown) [Compound 8007-6774]: the remaining activity at 2100 µM (residual activity) stood at 89%. With `NS(=O)(=O)Cc1ccccc1Cl` [Compound 8008-0774], the remaining activity at 2400 µM was determined as 89%. As to `Cc1cc(C)c(S(N)(=O)=O)c(Cl)n1` [Compound 8008-1931], the remaining activity at 2300 µM came out at 78%. Regarding `CCN(CC)S(=O)(=O)c1ncn[nH]1` [Compound 8008-1932], the remaining activity at 2400 µM was 93%. Take `OB1OCc2ccccc21` [Compound 8008-5589]: the remaining activity at 3700 µM (tested concentration 3.7 mM) came out at 85%. Take `Cc1nc(C#N)c(N2CCOCC2)o1` [Compound 8008-9715]: the remaining activity at 3100 µM was 93%. Regarding `Cc1cccc(C(=O)O)c1NC(=O)c1ccc(F)cc1` [Compound 8009-0898], the remaining activity at 1800 µM (residual activity) stood at 99%. Turning to `N#Cc1ccc(NC(=O)[C@H]2CC=CC[C@H]2C(=O)O)cc1` [Compound 8009-1194], the remaining activity at 2000 µM (residual activity) came out at 91%. For `O=S(=O)(O)c1ccc2cccc(O)c2n1` [Compound 8009-2146], the remaining activity at 2200 µM worked out at 96%. On to `O=C(O)C#CC12CC3CC(CC(C3)C1)C2` [Compound 8009-2654], for which the remaining activity at 2400 µM came to 112%. With `CC1CN(c2ccccc2)NC1=O` (stereo not shown) [Compound 8009-3796], under setting [1], the remaining activity at 3400 µM came out at 97%. Regarding `Cc1cc(F)c(F)c(C(=O)n2ccnc2)c1Cl` [Compound 8009-4247], the remaining activity at 2100 µM was determined as 102%. In the case of `Cc1nc2nc(S(N)(=O)=O)nn2c(C)c1C` [Compound 8009-4322], the remaining activity at 2100 µM was found to be 97%. In the case of `Cc1ccc(C#N)c(SCC(=O)O)n1` [Compound 8009-7785], the remaining activity at 2400 µM is 82%. For `Oc1nsnc1N1CCOCC1` [Compound 8009-8691], the remaining activity at 2700 µM (tested concentration 2.7 mM) is 88%. With `CCc1c(C)nn2cnnc2c1O` [Compound 8010-0007], under setting [1], the remaining activity at 3400 µM amounted to 97%. With `Cc1ccc(Cl)cc1S(=O)(=O)N1CCOCC1` [Compound 8010-0539], the remaining activity at 2000 µM (residual activity) was 98%. Take `O=[N+]([O-])c1cc(CN2CCCC2)c2cccnc2c1O` [Compound 8010-2705]: the remaining activity at 1800 µM (residual activity) came out at 57%.

For `Nc1n[nH]c(CC(=O)O)n1` [Compound 8010-3882], the remaining activity at 3500 µM worked out at 100%.

With `CCCc1cc(C(=O)O)n(C)n1` [Compound 8010-6224], the remaining activity at 3300 µM (residual activity of DdlB, fragment library screening, tested concentration 3.3 mM) came out at 90%. `Cc1ccc(C(=O)CC2(O)C(=O)Nc3ccccc32)c(C)c1` (stereo not shown) [Compound 8010-6588]: the remaining activity at 1700 µM is 93%. Consider `O=C(O)c1ccccc1NC(=O)c1[nH]ncc1[N+](=O)[O-]` [Compound 8010-7769], for which the remaining activity at 1800 µM (residual activity) was 99%. On to `COC(C(=O)NC1CC1)c1ccccc1` (stereo not shown) [Compound 8010-8989], for which the remaining activity at 2400 µM was 94%. With `Cc1cc2nc(O)c(CCO)c(C)n2n1` [Compound 8011-1975], the remaining activity at 2900 µM turned out to be 95%. In the case of `CSCCC(C(=O)O)N1C(=O)NC2NC(=O)NC21` (stereo not shown) [Compound 8011-2492], the remaining activity at 1800 µM is 95%. For `O=C(O)C1CSC(c2c(F)cc(F)cc2F)N1` (stereo not shown) [Compound 8011-4426], the remaining activity at 1900 µM was found to be 90%. Regarding `NC(=O)N[C@@H](Cc1ccccc1)C(=O)O` [Compound 8011-7026], the remaining activity at 2400 µM was 93%. For `CC1SC(c2ccc(Cl)c(Cl)c2)NC1=O` (stereo not shown) [Compound 8011-7610], the remaining activity at 1900 µM turned out to be 80%. In the case of `Oc1cc(-c2ccncc2)n[nH]1` [Compound 8011-7794], the remaining activity at 3100 µM came out at 77%. Consider `COC(=O)c1sc(C(=O)OC)c(O)c1O` [Compound 8011-7913], for which the remaining activity at 2200 µM (residual activity) was 86%. Same read-out and setting: the figure for `O=C(Nc1ccccc1)c1nc[nH]c1C(=O)O` [Compound 8011-9089] is 104%. On to `NC(=O)NCC(=O)N[C@H](Cc1c[nH]cn1)C(=O)O` [Compound 8012-0410], for which, where the note is “fragment library screening”, the remaining activity at 2000 µM turned out to be 91%. `CC(C)C(=O)Nc1ccc(Cl)cc1C(=O)O` [Compound 8012-2055]: the remaining activity at 2100 µM (residual activity) came to 110%.

For the compound `CC1(C)CC(=O)CC(C)(C)N1OC(=O)c1ccccn1` [Compound 8012-5220], for the setting “residual activity”, the remaining activity at 2200 µM was determined as 97%. As to `Cc1cc(C)n(CCO)c(=O)n1` [Compound 8012-5852], the remaining activity at 2400 µM under setting [1] is 94%. For the compound `O=C(O)CCNc1nc(F)cc(F)n1` [Compound 8012-6989], the remaining activity at 2500 µM is 93%.

Regarding `CC(C)(C)c1cc(C(=O)O)nn1-c1ccccc1` [Compound 8012-7831], for the setting “residual activity”, the remaining activity at 2000 µM worked out at 102%. For the compound `Nn1cnn(Cc2ccc([N+](=O)[O-])cc2)c1=O` [Compound 8012-9514], the remaining activity at 2100 µM amounted to 106%.

`O=S(=O)(c1ncn[nH]1)N1CCOCC1` [Compound 8013-0403]: the remaining activity at 2300 µM (residual activity) is 95%. In the case of `CCN(Cc1ccccc1)S(=O)(=O)c1ncn[nH]1` [Compound 8013-0404], the remaining activity at 1900 µM (residual activity) was 89%.

For the compound `C#CC1(O)C(C)CN(C)CC1C` (stereo not shown) [Compound 8013-1764], for the setting “residual activity of DdlB, fragment library screening, tested concentration 3.6 mM”, the remaining activity at 3600 µM was 97%.

Regarding `COc1ccc(C(O)(C(=O)O)C(F)(F)F)cc1OC` (stereo not shown) [Compound 8013-2786], the remaining activity at 1800 µM (residual activity) came to 94%. On to `O=C1CC2CS(=O)(=O)CC2N1C1CCCCC1` (stereo not shown) [Compound 8013-3540], for which the remaining activity at 2100 µM was found to be 82%.

Take `CC1(C)CC(n2nc(O)cc2N)CCO1` (stereo not shown) [Compound 8013-3639]: the remaining activity at 2400 µM was found to be 101%.

With `CC1(C)Cc2noc(N)c2C(C)(C)N1O` [Compound 8013-4059], the remaining activity at 2200 µM came out at 96%. `O=c1[nH]c2cc(S(=O)(=O)N3CCCCC3)ccc2o1` [Compound 8013-5568]: the remaining activity at 1800 µM worked out at 103%. On to `O=C(O)Cn1nnc(O)n1` [Compound 8013-5932], for which the remaining activity at 3500 µM was determined as 86%. Turning to `COc1ccc(-n2c(C)ccc2C)nc1` [Compound 8014-1211], the remaining activity at 2500 µM worked out at 22%.
